Data: patent publication US8586747B2, “3,3-dimethyl tetrahydroquinoline derivatives” (Hoffmann-La Roche Inc., priority 2010, dated 2013)

Each molecule was assayed on AMP-activated protein kinase (AMPK) (assay: ADP Quest assay for AMPK activators). Conditions: fold of AMPK activation to phosphorylate SAMS peptide without and with an activator at the concentration of 30 µM.
Format: biochemical
Parameters: key: fold AMPK activation with vs without activator at 30 µM
How it was run: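 AMPK phosphorylation of SAMS peptide with ATP monitored kinetically at room temperature by ADP Quest fluorescence (ex 530/em 590 nm), reaction started with enzyme. Compounds tested […] in 2-fold dilutions, AMP as reference. E30 is fold activation at 30 µM activator versus none.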

Compound	E30
CC1(C)Cc2cc(C(=O)O)ccc2NC1c1ccc(NC(=O)c2ccc(F)cc2)cc1 (stereo not drawn) [Example 182, 2-(4-(4-Fluorobenzamido)phenyl)-3,3-dimethyl-1,2,3,4-tetrahydroquinoline-6-carboxylic acid]	1.26
Cc1ccc(S(=O)(=O)Nc2ccc(C3Nc4ccc(C(=O)O)cc4CC3(C)C)cc2)cc1 (stereo not drawn) [Example 183, 3,3-Dimethyl-2-(4-(4-methylphenylsulfonamido)phenyl)-1,2,3,4-tetrahydroquinoline-6-carboxylic acid]	1.25
CC1(C)Cc2cc(C(=O)O)ccc2NC1c1ccc(NC(=O)c2ccccn2)cc1 (stereo not drawn) [Example 186, 3,3-Dimethyl-2-(4-(picolinamido)phenyl)-1,2,3,4-tetrahydroquinoline-6-carboxylic acid]	1.21
CC1(C)Cc2cc(C(=O)O)ccc2NC1c1ccc(F)c(NC(=O)c2ccc(F)cc2Cl)c1 (stereo not drawn) [Example 190, 2-(3-(2-Chloro-4-fluorobenzamido)-4-fluorophenyl)-3,3-dimethyl-1,2,3,4-tetrahydroquinoline-6-carboxylic acid]	1.3
CC1(C)Cc2cc(C(=O)O)ccc2NC1c1ccc(NC(=O)Cc2ccccc2)cc1 (stereo not drawn) [Example 193, 3,3-Dimethyl-2-(4-(2-phenylacetamido)phenyl)-1,2,3,4-tetrahydroquinoline-6-carboxylic acid]	1.26
CC1(C)Cc2cc(C(=O)O)ccc2NC1c1ccc(F)c(NC(=O)C2CCC2)c1 (stereo not drawn) [Example 194, 2-(3-(Cyclobutanecarboxamido)-4-fluorophenyl)-3,3-dimethyl-1,2,3,4-tetrahydroquinoline-6-carboxylic acid]	1.25
CC1(C)Cc2cc(C(=O)O)ccc2NC1c1ccc(Cl)c(NC(=O)C2CCCCC2)c1 (stereo not drawn) [Example 195, 2-(4-Chloro-3-(cyclohexanecarboxamido)phenyl)-3,3-dimethyl-1,2,3,4-tetrahydroquinoline-6-carboxylic acid]	1.25
CC1(C)Cc2cc(C(=O)O)ccc2NC1c1ccc(F)c(NC(=O)C2CCCC2)c1 (stereo not drawn) [Example 196, 2-(3-(Cyclopentanecarboxamido)-4-fluorophenyl)-,3-dimethyl-1,2,3,4-tetrahydroquinoline-6-carboxylic acid]	1.25
CC1(C)Cc2cc(C(=O)O)ccc2NC1c1ccc(F)c(NS(=O)(=O)c2cccc(F)c2)c1 (stereo not drawn) [Example 206, 2-(4-Fluoro-3-(3-fluorophenylsulfonamido)phenyl)-3,3-dimethyl-1,2,3,4-tetrahydroquinoline-6-carboxylic acid]	1.33
CC(C)(C)OC(=O)N1CC(NC(=O)c2cccc(C3Nc4ccc(C(=O)O)cc4CC3(C)C)c2)C1 (stereo not drawn) [Example 207, 2-(3-(1-(Tert-butoxycarbonyl)azetidin-3-ylcarbamoyl)phenyl)-3,3-dimethyl-1,2,3,4-tetrahydroquinoline-6-carboxylic acid]	1.32
CC1(C)Cc2cc(C(=O)O)ccc2NC1c1ccc(F)c(NS(=O)(=O)c2ccccc2F)c1 (stereo not drawn) [Example 209, 2-(4-Fluoro-3-(2-fluorophenylsulfonamido)phenyl)-,3-dimethyl-1,2,3,4-tetrahydroquinoline-6-carboxylic acid]	1.28
CC1(C)Cc2cc(C(=O)O)ccc2NC1c1ccc(F)c(NC(=O)C2CCCCC2)c1 (stereo not drawn) [Example 211, 2-(3-(Cyclohexanecarboxamido)-4-fluorophenyl)-3,3-dimethyl-1,2,3,4-tetrahydroquinoline-6-carboxylic acid]	1.41
CC1(C)Cc2cc(C(=O)O)ccc2NC1c1ccc(NS(=O)(=O)c2cccc(F)c2)cc1 (stereo not drawn) [Example 212, 2-(4-(3-Fluorophenylsulfonamido)phenyl)-3,3-dimethyl-1,2,3,4-tetrahydroquinoline-6-carboxylic acid]	1.28
CC1(C)Cc2cc(C(=O)O)ccc2NC1c1ccc(NS(=O)(=O)c2ccccc2F)cc1 (stereo not drawn) [Example 213, 2-(4-(2-Fluorophenylsulfonamido)phenyl)-3,3-dimethyl-1,2,3,4-tetrahydroquinoline-6-carboxylic acid]	1.27
CC1(C)Cc2cc(C(=O)O)ccc2NC1c1ccccc1NC(=O)C1CC1 (stereo not drawn) [Example 214, 2-(2-(Cyclopropanecarboxamido)phenyl)-3,3-dimethyl-1,2,3,4-tetrahydroquinoline-6-carboxylic acid]	1.41
CC1(C)Cc2cc(C(=O)O)ccc2NC1c1ccc(NC(=O)C2CCC2)cc1 (stereo not drawn) [Example 215, 2-(4-(Cyclobutanecarboxamido)phenyl)-3,3-dimethyl-1,2,3,4-tetrahydroquinoline-6-carboxylic acid]	1.38
CC1(C)Cc2cc(C(=O)O)ccc2NC1c1ccccc1NC(=O)C1CCC1 (stereo not drawn) [Example 216, 2-(2-(Cyclobutanecarboxamido)phenyl)-3,3-dimethyl-1,2,3,4-tetrahydroquinoline-6-carboxylic acid]	1.36
CC1(C)Cc2cc(C(=O)O)ccc2NC1c1ccc(NC(=O)C2=CCCCC2)cc1 (stereo not drawn) [Example 217, 2-(4-(Cyclohex-1-enecarboxamido)phenyl)-3,3-dimethyl-1,2,3,4-tetrahydroquinoline-6-carboxylic acid]	1.27
CC1(C)Cc2cc(C(=O)O)ccc2NC1c1ccccc1NS(=O)(=O)c1ccc(F)cc1 (stereo not drawn) [Example 218, 2-(2-(4-Fluorophenylsulfonamido)phenyl)-3,3-dimethyl-1,2,3,4-tetrahydroquinoline-6-carboxylic acid]	2.53
CC1(C)Cc2cc(C(=O)O)ccc2NC1c1ccccc1NS(=O)(=O)c1ccccc1F (stereo not drawn) [Example 219, 2-(2-(2-Fluorophenylsulfonamido)phenyl)-3,3-dimethyl-1,2,3,4-tetrahydroquinoline-6-carboxylic acid]	2.57
CC1(C)Cc2cc(C(=O)O)ccc2NC1c1ccccc1NS(=O)(=O)c1ccccc1 (stereo not drawn) [Example 220, 3,3-Dimethyl-2-(2-(phenylsulfonamido)phenyl)-1,2,3,4-tetrahydroquinoline-6-carboxylic acid]	1.89

Next, values leading:

E30	Compound
1.24	CC1(C)Cc2cc(C(=O)O)ccc2NC1c1ccc(F)c(NC(=O)c2ccccc2)c1 (stereo not drawn) [Example 184, 2-(3-Benzamido-4-fluorophenyl)-3,3-dimethyl-1,2,3,4-tetrahydroquinoline-6-carboxylic acid]
1.22	CC1(C)Cc2cc(C(=O)O)ccc2NC1c1ccc(NC(=O)c2ccccc2)cc1 (stereo not drawn) [Example 185, 2-(4-Benzamidophenyl)-3,3-dimethyl-1,2,3,4-tetrahydroquinoline-6-carboxylic acid]
1.38	CNC(=O)c1cccc(C2Nc3ccc(C(=O)O)cc3CC2(C)C)c1 (stereo not drawn) [Example 187, 3,3-Dimethyl-2-(3-(methylcarbamoyl)phenyl)-1,2,3,4-tetrahydroquinoline-6-carboxylic acid]
1.31	CC1(C)Cc2cc(C(=O)O)ccc2NC1c1ccc(F)c(NC(=O)C2CC2)c1 (stereo not drawn) [Example 189, 2-(3-(Cyclopropanecarboxamido)-4-fluorophenyl)-3,3-dimethyl-1,2,3,4-tetrahydroquinoline-6-carboxylic acid]
1.27	CC1(C)Cc2cc(C(=O)O)ccc2NC1c1cccc(C(=O)N2CCCCC2)c1 (stereo not drawn) [Example 191, 3,3-Dimethyl-2-(3-(piperidine-1-carbonyl)phenyl)-1,2,3,4-tetrahydroquinoline-6-carboxylic acid]
1.27	COCCNC(=O)c1cccc(C2Nc3ccc(C(=O)O)cc3CC2(C)C)c1 (stereo not drawn) [Example 192, 2-(3-(2-Methoxyethylcarbamoyl)phenyl)-3,3-dimethyl-1,2,3,4-tetrahydroquinoline-6-carboxylic acid]
1.22	COC(=O)c1ccc2c(c1)CC(C)(C)C(c1cccc(C(=O)Nc3cnccn3)c1)N2 (stereo not drawn) [Example 197, Methyl 3,3-dimethyl-2-(3-(pyrazin-2-ylcarbamoyl)-phenyl)-1,2,3,4-tetrahydroquinoline-6-carboxylate]
1.58	CC1(C)Cc2cc(C(=O)O)ccc2NC1c1cccc(C(N)=O)c1 (stereo not drawn) [Example 200, 2-(3-Carbamoylphenyl)-3,3-dimethyl-1,2,3,4-tetrahydroquinoline-6-carboxylic acid]
1.42	CC1(C)Cc2cc(C(=O)O)ccc2NC1c1cccc(NS(C)(=O)=O)c1 (stereo not drawn) [Example 201, 3,3-Dimethyl-2-(3-(methylsulfonamido)phenyl)-1,2,3,4-tetrahydroquinoline-6-carboxylic acid]
1.22	CC1(C)Cc2cc(C(=O)O)ccc2NC1c1cc(Cl)cc(NC(=O)c2ccccc2)c1 (stereo not drawn) [Example 202, 2-(3-Benzamido-5-chlorophenyl)-3,3-dimethyl-1,2,3,4-tetrahydroquinoline-6-carboxylic acid]
1.53	CN(C)CCNC(=O)c1cccc(C2Nc3ccc(C(=O)O)cc3CC2(C)C)c1 (stereo not drawn) [Example 203, 2-(3-(2-(Dimethylamino)ethylcarbamoyl)phenyl)-3,3-dimethyl-1,2,3,4-tetrahydroquinoline-6-carboxylic acid]
1.4	CC(=O)Nc1cccc(C2Nc3ccc(C(=O)O)cc3CC2(C)C)c1 (stereo not drawn) [Example 204, 2-(3-Acetamidophenyl)-3,3-dimethyl-1,2,3,4-tetrahydroquinoline-6-carboxylic acid]
1.38	CCN1CCCC1CNC(=O)c1cccc(C2Nc3ccc(C(=O)O)cc3CC2(C)C)c1 (stereo not drawn) [Example 205, 2-(3-((1-Ethylpyrrolidin-2-yl)methylcarbamoyl)phenyl)-3,3-dimethyl-1,2,3,4-tetrahydroquinoline-6-carboxylic acid]
1.3	CN1CC(NC(=O)c2cccc(C3Nc4ccc(C(=O)O)cc4CC3(C)C)c2)C1 (stereo not drawn) [Example 208, 3,3-Dimethyl-2-(3-(1-methylazetidin-3-ylcarbamoyl)phenyl)-1,2,3,4-tetrahydroquinoline-6-carboxylic acid]
1.33	CC(C)NS(=O)(=O)c1cccc(C2Nc3ccc(C(=O)O)cc3CC2(C)C)c1 (stereo not drawn) [Example 221, 2-(3-(N-isopropylsulfamoyl)phenyl)-3,3-dimethyl-1,2,3,4-tetrahydroquinoline-6-carboxylic acid]
